Data published in publication PMC10920327, “Prediction of anticancer peptides derived from the true lectins of Phoenix dactylifera and their synergetic effect with mitotane” (Frontiers in Pharmacology, 2024).
Where two headings read alike, the source gives them in different places. No end group written: not given here.

Columns and labels:
T47D = test: MTT cell viability assay, T47D; type: cell-based, human; details: Table 3, 48 h, peptide alone
Experimental: MCF-7, T47D (breast cancer), and HepG2 (liver cancer) were donated by the Tissue Culture Unit, Department of Biochemistry, Faculty of Science, King Abdulaziz University. Selected human cell lines were cultured in DMEM media with 10% fetal bovine serum (FBS) at 37°C in a CO2 incubator. After 70%–90% confluence, 5 mL of 0.25% trypsin is injected to separate the cells. The cells were counted using trypan blue, and the cell concentration was set at 10^5/mL. A 96-well plate was filled with […] in each well, and the plate was then incubated for 24 h.
Mitotane, marketed as Lysodren, functions as a steroidogenesis inhibitor and cytostatic antineoplastic drug. It is employed for treating adrenocortical carcinoma and Cushing’s syndrome ([Lo Iacono et al., 2021]). In this study the media in each well was replaced to contain media containing peptides in varying concentrations (U1, U2, U3, U4, U5, U6, U7, U8, and U9). U3 and U7, which have the lowest IC50 values, were chosen to be combined with mitotane. Mitotane concentrations ranged from 20 to 600 µM. U3 and U7 were combined with mitotane using two different preparation techniques. Various concentrations of U3 or U7 (40–1500 µM) and mitotane (20–600 µM) were serially diluted. serial dilution of mitotane concentration with 500 µg/mL of U3 or U7 at a fixed concentration Each concentration was repeated four times.
After 48 h of incubation at 37°C, 100 µL of the 0.5 mg/mL MTT was changed with media containing the medication. At 37°C in the dark, the 96-well plate was incubated for 4 h. After removing the MTT and replacing it with 100 µL of DMSO, the plate was allowed to rest for 15 min. The absorbance of each well in 96 well plate was read at wave length 595 nm by ELISA reader (Bio-RAD microplate reader, Japan).
The treated cells viability and IC50 were expressed as the mean ± standard deviation (SD). The percentage viability was calculated by multiplying the absorbance of treated cells by 100 and dividing the absorbance of untreated cells. The software GraphPad Prism (version 9.0, San Diego, CA, United States) was conducted to calculate the IC50 of peptides, mitotane and their combination.

MCF-7 [1] = details: MTT, 48 h; for % of cell viability of MCF-7, mitotane alone: mitotane 25 µg/mL alone
Experimental: (§1) Selected human cell lines were cultured in DMEM media with 10% fetal bovine serum (FBS) at 37°C in a CO2 incubator. After 70%–90% confluence, 5 mL of 0.25% trypsin is injected to separate the cells. The cells were counted using trypan blue, and the cell concentration was set at 10^5/mL. A 96-well plate was filled with 100 mL in each well, and the plate was then incubated for 24 h.
(§2) In this study the media in each well was replaced to contain media containing peptides in varying concentrations (U1, U2, U3, U4, U5, U6, U7, U8, and U9). […] Mitotane concentrations ranged from 20 to 600 µM. U3 and U7 were combined with mitotane using two different preparation techniques. Various concentrations of U3 or U7 (40–1500 µM) and mitotane (20–600 µM) were serially diluted. serial dilution of mitotane concentration with 500 µg/mL of U3 or U7 at a fixed concentration Each concentration was repeated four times.

HepG2 [2] = details: for IC50 / % of cell viability of HepG2, mitotane alone: 48 h; for % of cell viability of HepG2, mitotane alone: mitotane 25 µg/mL (80 µM) alone, MTT, 80 µM
Experimental: as §1, §2

MCF-7 [3] = test: cells; details: Homo sapiens, MCF7, read-out: IC50 value against MCF-7, single agent
Experimental: as §1, §2

HepG2 [4] = test: cells; details: Homo sapiens, HepG2, read-out: IC50 value against HepG2, single agent
Experimental: as §1, §2

[5] = mean ± SD, n = 3, read-out: IC50 value against T47D
[6] = range from GraphPad fit, read-out: IC50 range against T47D
[7] = read-out: IC50 range against MCF-7, Table 3, peptide alone, range from GraphPad fit
[8] = read-out: IC50 value against MCF-7, single agent, Table 4/Figure 2, U3, U7 40–1500 µM or mitotane alone, mean ± SD, n = 3
[9] = read-out: IC50 value against MCF-7, Table 3, peptide alone, mean ± SD, n = 3

Row | Molecule | IC50 (T47D; [5]) [µM] | IC50 (T47D; [6]) [µM] | IC50 (MCF-7 [1]; [7]) [µM] | IC50 (MCF-7 [1]; [8]) [µM] | IC50 (MCF-7 [1]; [9]) [µM] | IC50 (HepG2 [2]) [µM] | IC50 (MCF-7 [3]) [µM] | % of cell viability of MCF-7, mitotane alone (MCF-7 [1]) [%] | % of cell viability of MCF-7, mitotane alone (MCF-7 [1]; listed as mitotane) [%] | % of cell viability of HepG2, mitotane alone (HepG2 [2]) [%] | % of cell viability of HepG2, mitotane alone (HepG2 [2]; listed as mitotane) [%] | HepG2 IC50 fold lower than MCF-7 (HepG2 [2]; mitotane alone, HepG2 versus MCF-7) [fold] | IC50 (HepG2 [4]) [µM]
1 | NGSIPATWASL [Peptide U3] | 518 ± 34.9 | 435 to 616 | 373 to 617 | 556 ± 43.5 | 480 ± 55 | 561 ± 39.3 | – | – | – | – | – | – | –
2 | NEEENTHISTR [Peptide U4] | 872 ± 23.4 | 723 to 1050 | 261 to 338 | – | 297 ± 19.7 | – | – | – | – | – | – | – | –
3 | NCSIHGDIPAY [Peptide U7] | 584 ± 30 | 485 to 703 | 266 to 458 | 554 ± 44.4 | 349 ± 25.3 | 524 ± 35.8 | – | – | – | – | – | – | –
4 | NQADSSPSS [Peptide U2] | 1510 ± 78 | 1140 to 1990 | 451 to 1030 | – | 682 ± 32 | – | – | – | – | – | – | – | –
5 | AVGSASPTL [Peptide U6] | 5900 ± 119 | 2520 to 13800 | 1360 to 2080 | – | 1680 ± 74.3 | – | – | – | – | – | – | – | –
6 | SSQGYGSSPSPTPR [Peptide U1] | 599 ± 20.4 | 458 to 784 | 1010 to 2260 | – | 1510 ± 71.7 | – | – | – | – | – | – | – | –
7 | Clc1ccc(C(c2ccccc2Cl)C(Cl)Cl)cc1 (centres unmarked) [Mitotane] | – | – | – | – | – | – | 76.3 ± 5.04 | 59 | 59.05 ± 1.83 | 41 | 41.86 ± 4.54 | 2 | 40.1 ± 4.69
8 | DEEENTHISTR [Peptide U5] | 1260 ± 62.5 | 866 to 1830 | 549 to 1090 | – | 773 ± 44.5 | – | – | – | – | – | – | – | –
9 | TFPCSASNK [Peptide U8] | 4710 ± 83.6 | 1990 to 11100 | 518 to 792 | – | 641 ± 43.8 | – | – | – | – | – | – | – | –
10 | HDNTAHPAPDS [Peptide U9] | 5460 ± 99.3 | 2620 to 11400 | 351 to 496 | – | 418 ± 15.7 | – | – | – | – | – | – | – | –
